Tests used:
[1] = target: human glucagon receptor (GcgR) (Homo sapiens, UniProt P47871); assay: Human glucagon receptor activation (Table 1); type: cell-based; settings: read-out: EC50 (nM) hGcgR
[2] = tested on: diet-induced obese (DIO) mice; assay: Heart weight / cardiac hypertrophy in DIO mice; settings: mouse, in vivo
Procedure: For pharmacology studies on energy metabolism in obese mice (DIO mice), male C57Bl/6j mice (Jackson Laboratories) were fed a diabetogenic diet (Research Diets D12331), which is a high-sucrose diet with 58% kcal from fat 25.5% kcal from carbohydrates, and 16.4% kcal from protein. Dietary challenges began at 8 weeks of age. HFHSD mice were single- or group-housed on a 12:12-h light-dark cycle at 22° C. with free access to food and water. Mice were maintained under these conditions for a minimum of 16 weeks before initiation of pharmacological studies and were between the ages of 6 months to 12 months old. All injections and tests were performed during the light cycle. Compounds were administered in a vehicle of 1% Tween-80 and 1% DMSO and were given by daily subcutaneous injections at the indicated doses at a volume of 5 μl per g body weight. Mice were randomized and evenly distributed to test groups according to body weight and body composition. If ex vivo molecular biology/histology/biochemistry analyses were performed, the entire group of mice for each treatment was analyzed and scored in a blinded fashion. Compounds were administered by repeated subcutaneous injections in the middle of the light phase at the indicated doses with the indicated durations. […] Body weights and food intake were measured every day or every other day after the first injection. […]

[3] = tested on: diet-induced obese (DIO) mice; assay: Weight-lowering and metabolic pharmacology in diet-induced obese mice on HFHSD; type: in vivo; settings: for effect on body weight: DIO mice on HFHSD, equimolar doses, daily s.c. (FIG. 5A); for food intake: DIO mice (FIG. 5C)
Procedure: (§1) For pharmacology studies on energy metabolism in obese mice (DIO mice), male C57Bl/6j mice (Jackson Laboratories) were fed a diabetogenic diet (Research Diets D12331), which is a high-sucrose diet with 58% kcal from fat 25.5% kcal from carbohydrates, and 16.4% kcal from protein. Dietary challenges began at 8 weeks of age. HFHSD mice were single- or group-housed on a 12:12-h light-dark cycle at 22° C. with free access to food and water. Mice were maintained under these conditions for a minimum of 16 weeks before initiation of pharmacological studies and were between the ages of 6 months to 12 months old. All injections and tests were performed during the light cycle. Compounds were administered in a vehicle of 1% Tween-80 and 1% DMSO and were given by daily subcutaneous injections at the indicated doses at a volume of 5 μl per g body weight. Mice were randomized and evenly distributed to test groups according to body weight and body composition. If ex vivo molecular biology/histology/biochemistry analyses were performed, the entire group of mice for each treatment was analyzed and scored in a blinded fashion.
Compounds were administered by repeated subcutaneous injections in the middle of the light phase at the indicated doses with the indicated durations. Co-administration of compounds was administered by single formulated injections. Body weights and food intake were measured every day or every other day after the first injection. All studies with wild-type mice were performed with a group size of n=8 or greater using mice on a C57B16j background.
For assessment of intraperitoneal glucose tolerance during chronic treatment, the challenge tests were performed at least 24 hours after the last administration of compounds. The investigators were not blinded to group allocation during the in vivo experiments or to the assessment of longitudinal endpoints. All rodent studies were approved by and performed according to the guidelines of the Institutional Animal Care and Use Committee of the Helmholtz Center Munich, University of Cincinnati, Universite de Lyon, and in accordance with guidelines of the Association for the Assessment and Accreditation of Laboratory and Animal Care (AAALAC # Unit Number: 001057) and appropriate federal, state and local guidelines, respectively.
Whole-body composition (fat and lean mass) was measured using nuclear magnetic resonance technology (EchoMRI).

[4] = tested on: diet-induced obese (DIO) mice; assay: Indirect calorimetry in DIO mice (energy expenditure, RER, home-cage activity, food intake); type: in vivo
Procedure: as §1, with “fashion. Energy intake, energy expenditure, respiratory exchange ratio, and home-cage activity were assessed using a combined indirect calorimetry system (TSE Systems). O2 consumption and CO2 production were measured every 10 min for a total of up to 160 h (after 24 h of adaptation) to determine the respiratory quotient and energy expenditure after an initial treatment regimen. Food intake was determined continuously for the same time as the indirect calorimetry assessments by integration of scales into the sealed cage environment. Home-cage locomotor activity was determined using a multidimensional infrared light beam system with beams scanning the bottom and top levels of the cage, and activity being expressed as beam breaks.” for “fashion.”

| SMILES | EC50 [1] [nM] | heart weight / cardiac hypertrophy [2] | effect on body weight [3] | food intake [3] | absolute decrease in body weight from baseline ([3]; DIO mice, 100 nmoles/kg, daily subcutaneous treatment, after a week (FIG. 5A)) [%] | glucose tolerance ([3]; DIO mice, higher dose, equimolar (FIG. 5D)) | food intake during calorimetry ([4]; DIO mice (FIG. 6D)) | body weight loss during calorimetry study ([4]; DIO mice (FIG. 6E)) | home cage / ambulatory activity ([4]; DIO mice (FIG. 6F)) | whole-body energy expenditure ([4]; DIO mice, indirect calorimetry (FIG. 6C)) |
| --- | --- | --- | --- | --- | --- | --- | --- | --- | --- | --- |
| CC[C@H](C)[C@H](NC(=O)[C@H](Cc1ccccc1)NC(=O)[C@H](CCC(=O)O)NC(=O)[C@H](CCCCN)NC(=O)[C@H](C)NC(=O)[C@H](C)NC(=O)[C@H](CCC(N)=O)NC(=O)[C@H](CCC(=O)O)NC(=O)[C@H](CCC(=O)O)NC(=O)[C@H](CC(C)C)NC(=O)[C@H](Cc1ccc(O)cc1)NC(=O)[C@H](CO)NC(=O)[C@H](CO)NC(=O)[C@@H](NC(=O)[C@H](CC(=O)O)NC(=O)[C@H](CO)NC(=O)[C@@H](NC(=O)[C@H](Cc1ccccc1)NC(=O)[C@@H](NC(=O)CNC(=O)[C@H](CCC(=O)O)NC(=O)C(C)(C)NC(=O)[C@@H](N)Cc1c[nH]cn1)[C@@H](C)O)[C@@H](C)O)C(C)C)C(=O)N[C@@H](C)C(=O)N[C@@H](Cc1c[nH]c2ccccc12)C(=O)N[C@@H](CC(C)C)C(=O)N[C@H](C(=O)N[C@@H](CCCCN)C(=O)NCC(=O)NCC(=O)N1CCC[C@H]1C(=O)N[C@@H](CO)C(=O)N[C@@H](CO)C(=O)NCC(=O)N[C@@H](C)C(=O)N1CCC[C@H]1C(=O)N1CCC[C@H]1C(=O)N1CCC[C@H]1C(=O)N[C@@H](CO)C(=O)N[C@@H](CCCCNC(=O)CC[C@H](NC(=O)[C@@H](N)Cc1cc(I)c(Oc2ccc(O)c(I)c2)c(I)c1)C(=O)O)C(N)=O)C(C)C [IUB686, IUB48-(gE-T3-NH2)-amide] | > 100 | did not increase raw heart weight |  |  |  |  |  |  |  |  |
| CC[C@H](C)[C@H](NC(=O)[C@H](Cc1ccccc1)NC(=O)[C@H](CCC(=O)O)NC(=O)[C@H](CCCCN)NC(=O)[C@H](C)NC(=O)[C@H](C)NC(=O)[C@H](CCC(N)=O)NC(=O)[C@H](CCC(=O)O)NC(=O)[C@H](CCC(=O)O)NC(=O)[C@H](CC(C)C)NC(=O)[C@H](Cc1ccc(O)cc1)NC(=O)[C@H](CO)NC(=O)[C@H](CO)NC(=O)[C@@H](NC(=O)[C@H](CC(=O)O)NC(=O)[C@H](CO)NC(=O)[C@@H](NC(=O)[C@H](Cc1ccccc1)NC(=O)[C@@H](NC(=O)CNC(=O)[C@H](CCC(=O)O)NC(=O)C(C)(C)NC(=O)[C@@H](N)Cc1c[nH]cn1)[C@@H](C)O)[C@@H](C)O)C(C)C)C(=O)N[C@@H](C)C(=O)N[C@@H](Cc1c[nH]c2ccccc12)C(=O)N[C@@H](CC(C)C)C(=O)N[C@H](C(=O)N[C@@H](CCCCN)C(=O)NCC(=O)NCC(=O)N1CCC[C@H]1C(=O)N[C@@H](CO)C(=O)N[C@@H](CO)C(=O)NCC(=O)N[C@@H](C)C(=O)N1CCC[C@H]1C(=O)N1CCC[C@H]1C(=O)N1CCC[C@H]1C(=O)N[C@@H](CO)C(=O)N[C@@H](CCCCN)C(N)=O)C(C)C [IUB48] | > 100 |  | minimal impact on body weight |  |  |  |  |  |  |  |
| CC[C@H](C)[C@H](NC(=O)[C@H](Cc1ccccc1)NC(=O)[C@H](CCC(=O)O)NC(=O)[C@H](CCCCN)NC(=O)[C@H](C)NC(=O)[C@H](C)NC(=O)[C@H](CCC(N)=O)NC(=O)[C@H](CCC(=O)O)NC(=O)[C@H](CCC(=O)O)NC(=O)[C@H](CC(C)C)NC(=O)[C@H](Cc1ccc(O)cc1)NC(=O)[C@H](CO)NC(=O)[C@H](CO)NC(=O)[C@@H](NC(=O)[C@H](CC(=O)O)NC(=O)[C@H](CO)NC(=O)[C@@H](NC(=O)[C@H](Cc1ccccc1)NC(=O)[C@@H](NC(=O)CNC(=O)[C@H](CCC(=O)O)NC(=O)C(C)(C)NC(=O)[C@@H](N)Cc1c[nH]cn1)[C@@H](C)O)[C@@H](C)O)C(C)C)C(=O)N[C@@H](C)C(=O)N[C@@H](Cc1c[nH]c2ccccc12)C(=O)N[C@@H](CC(C)C)C(=O)N[C@H](C(=O)N[C@@H](CCCCN)C(=O)NCC(=O)NCC(=O)N1CCC[C@H]1C(=O)N[C@@H](CO)C(=O)N[C@@H](CO)C(=O)NCC(=O)N[C@@H](C)C(=O)N1CCC[C@H]1C(=O)N1CCC[C@H]1C(=O)N1CCC[C@H]1C(=O)N[C@@H](CO)C(=O)N[C@@H](CCCCNC(=O)CCC(=O)N[C@@H](Cc1cc(I)c(Oc2ccc(O)c(I)c2)c(I)c1)C(=O)O)C(N)=O)C(C)C [IUB687, IUB48-(Suc-T3-OH)-amide] | > 100 |  | significantly lowered body weight in a dose-dependent manner | no reductions in food intake | 11 |  |  |  |  |  |
| N[C@@H](Cc1cc(I)c(Oc2ccc(O)c(I)c2)c(I)c1)C(=O)O [Peptide T3, Triiodothyronine] |  |  | minimal impact on body weight | increased |  | improved glycemic control | hyperphagia | less body weight loss | significantly increased home cage activity | substantially increased whole-body energy expenditure |

From patent publication US20190290772A1 (published 2019)
